Measurements: patent publication US10233180B2, “Substituted nitrogen-containing heterocyclic derivatives, pharmaceutical compositions comprising the same and applications of antitumor thereof” (ZHEJIANG UNIVERSITY, priority 2014, dated 2019)

Legend:
Akt1 = molecular target: T1, Akt1 (Homo sapiens, UniProt P31749); assay: AKT1/PKBα KinEASE FP Fluorescein Green Assay (fluorescence polarization kinase kit); format: biochemical; settings: 1 h reaction, read-out: Inhibitory activities against Akt1 (IC50)
T1 construct: purchased 32-021
T1 sequence (P31749 whole entry): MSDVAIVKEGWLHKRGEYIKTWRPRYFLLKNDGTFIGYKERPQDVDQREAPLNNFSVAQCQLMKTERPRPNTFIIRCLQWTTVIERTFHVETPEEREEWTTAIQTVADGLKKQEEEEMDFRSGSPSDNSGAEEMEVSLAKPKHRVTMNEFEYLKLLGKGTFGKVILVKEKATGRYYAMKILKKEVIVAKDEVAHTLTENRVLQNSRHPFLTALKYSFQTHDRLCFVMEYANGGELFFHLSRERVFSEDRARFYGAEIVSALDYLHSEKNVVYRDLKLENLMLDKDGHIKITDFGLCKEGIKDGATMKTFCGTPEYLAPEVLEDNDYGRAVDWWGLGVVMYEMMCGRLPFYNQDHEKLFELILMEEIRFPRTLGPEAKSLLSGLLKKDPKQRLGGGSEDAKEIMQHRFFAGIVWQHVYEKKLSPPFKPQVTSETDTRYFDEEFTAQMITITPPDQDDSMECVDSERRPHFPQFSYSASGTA
Procedure, shortened: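 FP competition kinase assay: compounds (50 μM stock) with STK Substrate 3 and ATP, 1 h reaction at room temperature; stopped with stop/antibody mix, 4 h at room temperature, then polarization read. Inhibition derived from polarization values; IC50 calculated; triplicate wells.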

[1] = tested on: human colon cancer cell strain HCT-116; assay: MTT assay, inhibition of tumor cell growth in vitro, 72 h; format: cell-based; settings: Homo sapiens, HCT-116, MTT, read-out: Antitumor proliferative activities of tumor cell (IC50, μM) HCT-116 (converted)
Procedure, shortened: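 Cells in RPMI 1640 with FBS, 4000 cells/well, exposed 72 h at 37 °C, 5% CO2 to final 50, 10, 2, 0.4 and 0.08 μM; 1% DMSO blank. MTT OD gives % inhibition versus control; IC50 derived by Bliss method.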

[2] = tested on: Human ovarian cancer cell strain OVCAR-8; assay: as above; format: cell-based; settings: Homo sapiens, OVCAR-8, MTT, read-out: Antitumor proliferative activities of tumor cell (IC50, μM) OVCAR-8
Procedure, shortened: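 OVCAR8 cells in RPMI 1640 plus FBS were seeded at 4000 cells/well and exposed for 72 h at 37 °C to compound at 50, 10, 2, 0.4 and 0.08 μM final, with 1% DMSO as blank. Inhibition was calculated from OD relative to control, and IC50 was derived by the Bliss method.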

Row | SMILES | IC50 (Akt1) [nM] | IC50 [1] [µM] | IC50 [2] [µM]
1 | Cn1ncc(Cl)c1-c1ccc(C(=O)N[C@@H]2CNCC[C@H]2c2ccc(F)c(F)c2)cc1-c1ccoc1 [Compound 87, 4-(4-chloro-1-methyl-1H-pyrazol-5-yl)-N-((3S,4S)-4-(3,4-difluorophenyl)piperidin-3-yl)-3-(furan-3-yl)benzamide] | 10 | 5.63 | 2.43
2 | Cn1ncc(Cl)c1-c1cc(C(=O)N[C@@H]2CNC(CCN3CCC(O)CC3)C[C@H]2c2ccc(Cl)c(Cl)c2)oc1Cl (stereo partly drawn) [Compound 114, 5-chloro-4-(4-chloro-1-methyl-1H-pyrazol-5-yl)-N-((3S,4S)-4-(3,4-dichlorophenyl)-6-(2-(4-hydroxylpiperidin-1-yl)ethyl)piperidin-3-yl)furan-2-formamide] | 14 | 1.1 | 1.56
3 | Cn1ncc(Cl)c1-c1cc(C(=O)N[C@H]2CNCC[C@@H]2c2ccc(F)c(F)c2)oc1Cl (racemic) [Compound 31, 5-chloro-4-(4-chloro-1-methyl-1H-pyrazol-5-yl)-N-(3,4-trans-4-(3,4-difluorophenyl)piperidin-3-yl)furan-2-formamide] | 18 | 1.85 | 4.54
4 | Cn1ncc(Cl)c1-c1cc(C(=O)N[C@@H]2CNC(CC(O)CO)C[C@H]2c2ccc(F)c(F)c2)oc1Cl (stereo partly drawn) [Compound 128, 5-chloro-4-(4-chloro-1-methyl-1H-pyrazol-5-yl)-N-((3S,4S)-4-(3,4-difluorophenyl)-6-(2,3-dihydroxypropyl)piperidin-3-yl)furan-2-formamide] | 0.5 | 0.95 | 0.92
5 | Cc1nc(C(=O)N[C@H]2CNCC[C@@H]2c2ccc(F)c(F)c2)ncc1-c1c(Cl)cnn1C (racemic) [Compound 52, 4-methyl-5-(4-chloro-1-methyl-1H-pyrazol-5-yl)-N-(3,4-trans-4-(3,4-difluorophenyl)piperidin-3-yl)pyrimidine-2-formamide] | 72 | 2.05 | 1.06
6 | Cn1ncc(Cl)c1-c1csc(C(=O)N[C@H]2CNCC[C@@H]2c2ccc(Cl)cc2)c1 (racemic) [Compound 35, 4-(4-chloro-1-methyl-1H-pyrazol-5-yl)-N-(3,4-trans-4-(4-chlorphenyl)piperidin-3-yl)thiophene-2-formamide] | 120 | 11.5 | 4.61
7 | Cc1[nH]c(C(=O)N[C@H]2CNCC[C@@H]2c2cccc(C#N)c2)cc1-c1c(Br)cnn1C (racemic) [Compound 10, 5-methyl-4-(1-methyl-4-bromo-1H-pyrazol-5-yl)-N-(3,4-trans-4-(3-cyanophenyl)piperidin-3-yl)-1H-pyrrole-2-formamide] | 26 | 3.31 | 6.57
8 | Cn1ncc(Cl)c1-c1cc(C(=O)N[C@H]2CNC[C@@H]2c2ccc(C(F)(F)F)cc2)oc1Cl (racemic) [Compound 69, 5-chloro-4-(4-chloro-1-methyl-1H-pyrazol-5-yl)-N-(3,4-trans-4-(4-trifluoromethylphenyl)pyrrolidin-3-yl)furan-2-formamide] | 323 | 3.04 | 24.3
9 | Cn1ncc(Cl)c1-c1cc(C(=O)N[C@@H]2CNC(CCCO)C[C@H]2c2ccc(Cl)c(Cl)c2)oc1Cl (stereo partly drawn) [Compound 111, 5-chloro-4-(4-chloro-1-methyl-1H-pyrazol-5-yl)-N-((3S,4S)-4-(3,4-dichlorophenyl)-6-(3-hydroxypropyl)piperidin-3-yl)furan-2-formamide] | 4 | 0.49 | 0.07
10 | CCc1sc(C(=O)N[C@H]2CNCC[C@@H]2c2cnc3c(c2)CCC(C)C3)cc1-c1c(C(C)C)cnn1C (stereo partly drawn) [Compound 14, 5-ethyl-4-(4-isopropyl-1-methyl-1H-pyrazol-5-yl)-N-(3,4-trans-4-(7-methyl-5,6,7,8-tetrahydroquinolin-3-yl)piperidin-3-yl)thiophene-2-formamide] | 5 | 3.78 | 3.68
11 | Cn1ncc(Br)c1-c1coc(C(=O)N[C@H]2CNC[C@@H]2c2ccc(C(F)(F)F)cc2)c1 (racemic) [Compound 67, 4-(4-bromo-1-methyl-1H-pyrazol-5-yl)-N-(3,4-trans-4-(4-trifluoromethylphenyl)pyrrolidin-3-yl)furan-2-formamide] | 272 | 20.4 | 10.6
12 | Cn1ncc(Br)c1-c1csc(C(=O)N[C@H]2CNCC[C@@H]2c2ccc(F)c(F)c2)c1 (racemic) [Compound 38, 4-(4-bromo-1-methyl-1H-pyrazol-5-yl)-N-(3,4-trans-4-(3,4-difluorophenyl)piperidin-3-yl)thiophene-2-formamide] | 409 | 1.94 | 4.69
13 | CN(C)CCC1C[C@@H](c2ccc(Cl)c(Cl)c2)[C@H](NC(=O)c2cc(-c3c(Cl)cnn3C)c(Cl)o2)CN1 (stereo partly drawn) [Compound 107, 5-chloro-4-(4-chloro-1-methyl-1H-pyrazol-5-yl)-N-((3S,4S)-4-(3,4-dichlorophenyl)-6-(2-(dimethylamino)ethyl)piperidin-3-yl)furan-2-formamide] | 14 | 1.08 | 1.01
14 | Cn1ncc(Cl)c1-c1coc(C(=O)N[C@H]2CNC[C@@H]2c2ccc(F)c(F)c2)c1 (racemic) [Compound 66] | 345 | 3.22 | 3.48
15 | Cn1ncc(Cl)c1-c1cnc(C(=O)N[C@@H]2CNCC[C@H]2c2cccc(F)c2)cc1Cl [Compound 92, 4-chloro-5-(4-chloro-1-methyl-1H-pyrazol-5-yl)-N-((3S,4S)-4-(3-fluorophenyl)piperidin-3-yl)picolinamide] | 16 | 1.25 | 1.07
16 | Cn1ncc(Cl)c1-c1cc(C(=O)N[C@@H]2CNC(CC(=O)NCCO)C[C@H]2c2ccc(Cl)c(Cl)c2)oc1Cl (stereo partly drawn) [Compound 125, 5-chloro-4-(4-chloro-1-methyl-1H-pyrazol-5-yl)-N-((3S,4S)-4-(3,4-dichlorophenyl)-6-(2-((2-hydroxyethyl)amido)-2-oxoethyl)piperidin-3-yl)furan-2-formamide] | 0.1 | 1.25 | 0.12
17 | Cn1ncc(Cl)c1-c1cc(C(=O)N[C@H]2CNCC[C@@H]2c2ccc(Cl)cc2)oc1Cl (racemic) [Compound 2, 5-chloro-4-(4-chloro-1-methyl-1H-pyrazol-5-yl)-N-(3,4-trans-4-(4-chlorphenyl)piperidin-3-yl)furan-2-formamide] | 99 | 1.41 | 6.45
18 | Cn1ncc(Cl)c1-c1cc(C(=O)N[C@@H]2CNC(CC(=O)NC3CC3)C[C@H]2c2ccc(Cl)c(Cl)c2)oc1Cl (stereo partly drawn) [Compound 119, 5-chloro-4-(4-chloro-1-methyl-1H-pyrazol-5-yl)-N-((3S,4S)-6-(2-(cyclopropylamido)-2-oxoethyl)-4-(3,4-dichlorophenyl)piperidin-3-yl)furan-2-formamide] | 4 | 1.47 | 0.65
19 | Cc1cc(C(=O)N[C@@H]2CNCC[C@H]2c2ccc(F)c(F)c2)ncc1-c1c(Cl)cnn1C [Compound 94, 5-(4-chloro-1-methyl-1H-pyrazol-5-yl)-N-((3S,4S)-4-(3,4-difluorophenyl)piperidin-3-yl)-4-methylpicolinamide] | 7 | 0.89 | 1.22
20 | CCc1cnn(C)c1-c1cccc(C(=O)N[C@H]2CNCC[C@@H]2c2ccc(Cl)cc2)c1Cl (racemic) [Compound 53, 2-chloro-3-(4-ethyl-1-methyl-1H-pyrazol-5-yl)-N-(3,4-trans-4-(4-chlorophenyl)piperidin-3-yl)phenyl formamide] | 29 | 2.66 | 4.69
21 | Cn1ncc(Cl)c1-c1cc(C(=O)N[C@@H]2CNCC[C@H]2c2ccc(C(F)(F)F)cc2)oc1Cl [Compound 44, 5-chloro-4-(4-chloro-1-methyl-1H-pyrazol-5-yl)-N-((3S,4S)-4-(4-trifluoromethylphenyl)piperidin-3-yl)furan-2-formamide] | 672 | 18.3 | 1.88
22 | Cn1ncc(Cl)c1-c1cc(C(=O)N[C@@H]2CNC(CCN3CCCCC3)C[C@H]2c2ccc(Cl)c(Cl)c2)oc1Cl (stereo partly drawn) [Compound 108, 5-chloro-4-(4-chloro-1-methyl-1H-pyrazol-5-yl)-N-((3S,4S)-4-(3,4-dichlorophenyl)-6-(2-(piperidin-1-yl)ethyl)piperidin-3-yl)furan-2-formamide] | 9 | 0.57 | 2.04
23 | Cc1cc(C(=O)N[C@H]2CNCC[C@@H]2C2CCCC(Cl)C2)ncc1-c1c(Cl)cnn1C (stereo partly drawn) [Compound 56, 5-(4-chloro-1-methyl-1H-pyrazol-5-yl)-N-(3,4-trans-4-(3-chlorocyclohexane)piperidin-3-yl)-4-methylpyridinyl-2-formamide] | 362 | 4.51 | 9.53
24 | Cn1ncc(Br)c1-c1coc(C(=O)N[C@H]2CNC[C@@H]2c2ccc(F)c(F)c2)c1 (racemic) [Compound 68, 4-(4-bromo-1-methyl-1H-pyrazol-5-yl)-N-(3,4-trans-4-(3,4-difluorophenyl)pyrrolidin-3-yl)furan-2-formamide] | 679 | 2.84 | 4.19
